Values quoted from earlier work as cited in patent US20090029375A1, “GENETIC MODELS FOR STRATIFICATION OF CANCER RISK” (Intergenetics, Inc., priority 2007, published 2009).

Columns and labels:
estrogen receptors = conditions: preclinical data, uterine and breast tissues
breast cancer = conditions: osteoporosis prevention/treatment study
[1] = tested on: rat mammary carcinoma induced by dimethylbenzanthracene (DMBA)

| estrogen antagonism (estrogen receptors) | SMILES | effect on incidence of breast cancer (breast cancer) | induction of rat mammary carcinoma [1] |
| --- | --- | --- | --- |
| estrogen antagonist | O=C(c1ccc(OCCN2CCCCC2)cc1)c1c(-c2ccc(O)cc2)sc2cc(O)ccc12 [raloxifene] | reduce the incidence of breast cancer | – |
| – | CC/C(=C(\c1ccccc1)c1ccc(OCCN(C)C)cc1)c1ccccc1 [tamoxifen] | – | inhibits the induction |
